# Measured values reported in ChEMBL document CHEMBL4028841, “The identification of novel acid isostere based inhibitors of the VPS10P family sorting receptor Sortilin” (Bioorg Med Chem Lett, 2017).
# Active and inactive are the calls of the source. No cut-off for these calls is given here.
# Key:
# Sortilin = target: T1, Sortilin (Homo sapiens, UniProt Q99523); experiment: Displacement of [3H]-neurotensin from human His6-tagged sortilin pretreated for 30 mins followed by [3H]-neurotensin addition after 6 hrs measured for 360 secs by SPA
# T1 sequence (Q99523 whole entry): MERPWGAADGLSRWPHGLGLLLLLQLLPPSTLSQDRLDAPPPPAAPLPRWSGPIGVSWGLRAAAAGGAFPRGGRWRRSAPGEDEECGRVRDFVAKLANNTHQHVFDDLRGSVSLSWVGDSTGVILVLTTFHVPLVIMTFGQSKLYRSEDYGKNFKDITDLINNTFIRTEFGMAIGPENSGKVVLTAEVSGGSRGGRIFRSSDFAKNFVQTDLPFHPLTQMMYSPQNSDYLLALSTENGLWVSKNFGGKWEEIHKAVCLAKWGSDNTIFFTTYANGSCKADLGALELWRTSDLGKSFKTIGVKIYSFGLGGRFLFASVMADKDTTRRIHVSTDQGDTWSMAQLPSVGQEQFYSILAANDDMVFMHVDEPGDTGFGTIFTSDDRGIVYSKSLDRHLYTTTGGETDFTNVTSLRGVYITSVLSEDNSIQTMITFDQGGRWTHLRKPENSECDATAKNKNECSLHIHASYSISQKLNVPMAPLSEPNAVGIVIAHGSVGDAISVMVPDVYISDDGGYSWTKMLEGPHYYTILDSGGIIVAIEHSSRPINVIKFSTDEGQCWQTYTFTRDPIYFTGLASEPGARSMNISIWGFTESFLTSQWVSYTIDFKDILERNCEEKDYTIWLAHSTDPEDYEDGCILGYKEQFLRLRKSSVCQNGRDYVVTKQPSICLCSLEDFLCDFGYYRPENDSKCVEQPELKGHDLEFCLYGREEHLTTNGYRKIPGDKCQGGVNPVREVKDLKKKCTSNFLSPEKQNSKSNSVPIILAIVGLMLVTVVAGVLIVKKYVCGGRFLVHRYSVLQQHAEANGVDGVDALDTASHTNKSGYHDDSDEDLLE
# MDR1 = experiment: Permeability in MDCK cells expressing human MDR1 at 0.5 uM after 150 mins by LC-MS/MS analysis; type: ADME, cell-based, Canis lupus familiaris; settings: dog, read-out: permeability
# Sortilin (Homo sapiens) = Sortilin (Homo sapiens) (UniProt Q99523); experiment: Displacement of [3H]-neurotensin from human His6-tagged sortilin at 500 uM pretreated for 30 mins followed by [3H]-neurotensin addition after 6 hrs measured for 360 secs by SPA relative to control
# [1] = Dissociation constant, pKa of the compound in 29 to 54% methanol; type: physicochemical
Structure (SMILES),IC50 (Sortilin),Imax (Sortilin (Homo sapiens)),further results
CC(C)CCN1N=NC(=O)C1NC(=O)c1cccnc1 (stereo not drawn),12.6 µM,,"Papp at 2.5 h, 0.5 µM (MDR1): < 0.1 ×10⁻⁶ cm/s"
O=c1[nH]nc(Cc2ccccc2)o1,,54%,
O=C1CC(Cc2ccccc2)=NO1,79.4 µM,,
O=C1CN(c2ccc(Cl)cc2)N=N1,,inactive,
O=C1CN(c2ccccc2)N=N1,,50%,
O=C1CC(c2ccccc2Cl)=NO1,,37%,
Cc1cccc(NC(=O)c2ccc(C(F)(F)F)cc2C(=O)O)n1,,,"Papp at 2.5 h, 0.5 µM (MDR1): 0.3 ×10⁻⁶ cm/s"
Cc1cccc(NC(=O)C2C(=O)N=NN2CCC(C)C)n1 (stereo not drawn),12.6 µM,,
O=C1CC(c2cccc(Cl)c2)=NO1,,30%,
CC(C)CCC1=NOC(=O)C1,12.6 µM,,
CCC1C(=O)N=NN1CCC(C)C (stereo not drawn),,57%,
O=C1CN(Cc2ccccc2)N=N1,126 µM,,
CC(C)CCN1N=NC(=O)C1C(=O)Nc1ccncc1 (stereo not drawn),63.1 µM,,
O=c1[nH]nc(-c2ccccc2Cl)o1,,63%,
O=c1cc(-c2ccccc2)o[nH]1,,inactive,
CC(C)CCN1N=NC(=O)C1C(C)C (stereo not drawn),,< 20%,
CC(C)CCc1n[nH]c(=O)o1,63.1 µM,,
CC(C)CCN1N=NC(=O)C1C(N)=O (stereo not drawn),50.1 µM,,
Oc1nc(-c2ccccc2)no1,,35%,
CNC(=O)C1C(=O)N=NN1CCC(C)C (stereo not drawn),39.8 µM,,"Papp at 2.5 h, 0.5 µM (MDR1): < 0.1 ×10⁻⁶ cm/s"
CC(C)CCc1noc(=O)[nH]1,126 µM,,

Structure (SMILES),IC50 (Sortilin),Imax (Sortilin (Homo sapiens)),further results
CC(C)CN1CC(=O)N=N1,,69%,
CC(C)CCN1N=NC(=O)C1NC(=O)c1ccncc1 (stereo not drawn),20 µM,,
CC(C)CCN1N=NC(=O)C1C (stereo not drawn),79.4 µM,,
CC(C)Cc1n[nH]c(=O)o1,,60%,
CC(C)CC1=NOC(=O)C1,31.6 µM,,
O=c1[nH]nc(-c2cccc(Cl)c2)o1,,inactive,
O=c1[nH]c(-c2ccc(Cl)cc2)no1,,inactive,
O=c1[nH]c(Cc2ccccc2)no1,,55%,
O=c1[nH]c(-c2cccc(Cl)c2)no1,,42%,
Cn1nnc(O)c1CC(N)C(=O)O (stereo not drawn),,,pKa [1]: 6.4
CC(C)CCN1CC(=O)N=N1,63.1 µM,,"pKa [1]: 7; Papp at 2.5 h, 0.5 µM (MDR1): 2.9 ×10⁻⁶ cm/s"
O=C1CN(c2cccc(Cl)c2)N=N1,,inactive,
CC(=O)NC1C(=O)N=NN1CCC(C)C (stereo not drawn),31.6 µM,,"Papp at 2.5 h, 0.5 µM (MDR1): < 0.1 ×10⁻⁶ cm/s"
O=C1CC(c2ccc(Cl)cc2)=NO1,,inactive,
Cc1cccc(C(=O)NC2C(=O)N=NN2CCC(C)C)n1 (stereo not drawn),39.8 µM,,
O=C1CN(c2ccccc2Cl)N=N1,,inactive,
O=c1[nH]nc(-c2ccccc2)o1,126 µM,,
CC(C)CCN1N=NC(=O)C1C(=O)Nc1cccnc1 (stereo not drawn),3.98 µM,,"Papp at 2.5 h, 0.5 µM (MDR1): 2.9 ×10⁻⁶ cm/s"
O=c1[nH]c(-c2ccccc2Cl)no1,,inactive,
O=c1[nH]nc(-c2ccc(Cl)cc2)o1,,inactive,
O=C1CC(c2ccccc2)=NO1,158 µM,,
